Data from publication PMC4008314 (Clinical cancer research : an official journal of the …, 2012).
Read-outs that look alike come from different tables or passages of the source.

Experiments:
[1] = test system: circulating endothelial progenitor cells (CEPC); assay: Circulating endothelial progenitor cells by fluorescence-activated cell sorter; format: in vivo, children; conditions: paired samples (n = 21), baseline vs end of cycle 1
[2] = cited from earlier work
[3] = test system: refractory leukemias (AML and FLT3ITD); assay: Response evaluation, leukemias; format: in vivo, children; conditions: 2 patients with AML and FLT3ITD
[4] = cited from earlier work; remark: listed apart in the source
[5] = test system: plasma VEGF; conditions: paired samples (n = 26), baseline vs end of cycle 1
[6] = test system: circulating endothelial cells (CEC); assay: Circulating endothelial cells by fluorescence-activated cell sorter; format: in vivo, children; conditions: paired samples (n = 21), baseline vs end of cycle 1
[7] = test system: refractory leukemias; conditions: cited from earlier work
[8] = test system: advanced HCCs; conditions: adults with advanced HCCs; cited from earlier work
[9] = in vivo
[10] = test system: RCCs; conditions: adults with RCCs; cited from earlier work
[11] = test system: multiple tumor types; conditions: cited from earlier work
[12] = human, in vivo
[13] = clinical; conditions: human, in vivo
[14] = test system: endoglin; conditions: paired samples (n = 26), baseline vs end of cycle 1
[15] = test system: placental growth factor (PlGF); assay: Plasma PlGF by ELISA, baseline vs steady state; format: in vivo, children; conditions: at steady state vs baseline, P ≤ 0.001
[16] = cited from earlier work; remark: listed apart in the source
[17] = in vivo; remark: listed apart in the source
[18] = test system: refractory solid tumors; assay: Response evaluation, solid tumors; format: in vivo, children

CNC(=O)c1cc(Oc2ccc(NC(=O)Nc3ccc(Cl)c(C(F)(F)F)c3)cc2)ccn1 [Sorafenib]
CEPC number, change [1]: no change | incidence of grade 2 and 3 hand foot skin reactions and rashes ([2]; children with solid tumors, sorafenib in combination): 5 of 19 | recommended phase II dose ([2]; twice daily, with bevacizumab and cyclophosphamide): 90 mg/m^2/dose | bone marrow blasts [3]: less than 5% | AUC0–12h ([4]; adults, 400-mg dose after multiple doses): 47800 to 76500 ng·h/mL | adults requiring dose reductions with chronic administration ([4]; mostly due to skin toxicity and diarrhea): Up to a third | recommended fixed dose ([4]; twice daily, adults): 400 mg | plasma VEGF concentration, change [5]: no change | CEC number, change [6]: no change | sorafenib steady-state (day 7) concentration ([7]; 150 mg/m^2, children with refractory leukemia): 7.0 ± 1.8 µg/mL | sorafenib steady-state (day 7) concentration ([7]; 200 mg/m^2, children with refractory leukemia): 6.5 ± 3.6 µg/mL | patients with complete remission ([7]; after combination therapy): 6 | patients with decreased blast percentages ([7]; by day 8): 10 of 12 | conversion of sorafenib to the active N-oxide metabolite ([7]; children vs that reported in adult patients): much higher rate of conversion | incidence of grade 2 and 3 hand foot skin reactions and rashes ([7]; children with leukemia, sorafenib in combination): 8 of 12 | objective response [8]: 2% | Anorexia grade 2 (non-DLT) ([9]; human): 1 | Headache grade 2 (non-DLT) ([9]; human): 1 | Hyperglycemia grade 1 (non-DLT) ([9]; human): 1 | Hypocalcemia grade 2 (non-DLT) ([9]; human): 1 | Hypokalemia grade 3 (non-DLT) ([9]; human): 1 | Hypomagnesemia grade 1 (non-DLT) ([9]; human): 2 | Hypophosphatemia grade 2 (non-DLT) ([9]; human): 1 | Increased AST grade 1 (non-DLT) ([9]; human): 1 | Increased bilirubin grade 1 (non-DLT) ([9]; human): 1 | Nausea grade 1 (non-DLT) ([9]; human): 1 | Rash/Desquamation grade 1 (non-DLT) ([9]; human): 2 | Anorexia grade 1 (non-DLT) ([9]; human, 28 days): 1 | Anorexia grade 2 (non-DLT) ([9]; human, 28 days): 1 | Diarrhea grade 1 (non-DLT) ([9]; human, 28 days): 2 | Diarrhea grade 2 (non-DLT) ([9]; human, 28 days): 1 | Fatigue grade 2 (non-DLT) ([9]; human, 28 days): 2 | Hyperglycemia grade 1 (non-DLT) ([9]; human, 28 days): 2 | Increased ALT grade 1 (non-DLT) ([9]; human, 28 days): 1 | Increased ALT grade 2 (non-DLT) ([9]; human, 28 days): 1 | Increased AST grade 1 (non-DLT) ([9]; human, 28 days): 3 | Increased AST grade 2 (non-DLT) ([9]; human, 28 days): 1 | Increased bilirubin grade 1 (non-DLT) ([9]; human, 28 days): 2 | Nausea grade 1 (non-DLT) ([9]; human, 28 days): 2 | recommended phase II dose ([9]; human, 28 days): 150 mg/m^2/dose | Headache grade 1 (non-DLT) ([9]; human, 28 days (course 1)): 1 | Headache grade 2 (non-DLT) ([9]; human, 28 days (course 1)): 1 | Hyperglycemia grade 2 (non-DLT) ([9]; human, 28 days (course 1)): 1 | Hypoalbuminemia grade 1 (non-DLT) ([9]; human, 28 days (course 1)): 1 | Hypoalbuminemia grade 2 (non-DLT) ([9]; human, 28 days (course 1)): 1 | Hypocalcemia grade 1 (non-DLT) ([9]; human, 28 days (course 1)): 1 | Hypocalcemia grade 2 (non-DLT) ([9]; human, 28 days (course 1)): 1 | Hypokalemia grade 1 (non-DLT) ([9]; human, 28 days (course 1)): 2 | Hypomagnesemia grade 1 (non-DLT) ([9]; human, 28 days (course 1)): 1 | Hypomagnesemia grade 3 (non-DLT) ([9]; human, 28 days (course 1)): 1 | Hyponatremia grade 1 (non-DLT) ([9]; human, 28 days (course 1)): 2 | Hypophosphatemia grade 2 (non-DLT) ([9]; human, 28 days (course 1)): 1 | Hypophosphatemia grade 3 (non-DLT) ([9]; human, 28 days (course 1)): 1 | Proteinuria grade 1 (non-DLT) ([9]; human, 28 days (course 1)): 1 | Proteinuria grade 2 (non-DLT) ([9]; human, 28 days (course 1)): 1 | dose-limiting ALT/AST elevation [9]: No dose-limiting ALT/AST elevation | objective response [10]: 10% | in vivo antitumor activity [11]: growth inhibition observed in multiple tumor types | Tmax, steady state [12]: 0.8 h | half-life [13]: ≥ 24 h | AUC(0-t) ([13]; 130 mg/m2, AUC0–24h, day 1): 20000 ng·h/mL | Tmax ([13]; 130 mg/m2, Tmax, day 1): 7.9 h | Tmax ([13]; 150 mg/m2, Tmax, steady state): 3 h | AUC(0-t) ([13]; 200 mg/m2, AUC0–24h, day 1): 19000 ng·h/mL | Cmax ([13]; 200 mg/m2, Cmax, day 1): 1000 ng/mL | AUC(0-t) ([13]; 200 mg/m2, median steady-state AUC0–12h): 55700 ng·h/mL | AUC(0-t) ([13]; 250 mg/m2, AUC0–24h, day 1): 27600 ng·h/mL | Tmax ([13]; 250 mg/m2, Tmax, day 1): 8 h | Tmax ([13]; […]2, Tmax, day 1): 5 h | AUC(0-t) ([13]; mean (SD) AUC0–12h steady state): 61200 ng·h/mL | Cmax ([13]; po, 130 mg/m2, Cmax, day 1): 1500 ng/mL | AUC(0-t) ([13]; po, 150 mg/m2, AUC0–12h, steady state): 49700 ng·h/mL | AUC(0-t) ([13]; po, 150 mg/m2, AUC0–24h, day 1): 28300 ng·h/mL | Cmax ([13]; po, 150 mg/m2, Cmax, day 1): 1900 ng/mL | AUC(0-t) ([13]; po, 200 mg/m2, AUC0–12h, steady state): 60200 ng·h/mL | AUC(0-t) ([13]; po, 200 mg/m2, AUC0–24h, day 1): 27300 ng·h/mL | Cmax ([13]; po, 200 mg/m2, Cmax, day 1): 1600 ng/mL | Cmax ([13]; po, 200 mg/m2, Cmax, steady state): 8300 ng/mL | Tmax ([13]; po, 200 mg/m2, Tmax, steady state): 3.4 h | Tmax ([13]; po, […]2, Tmax, day 1): 5 h | plasma endoglin concentration, change [14]: no change | PlGF, change [15]: increase | in vitro activity [16]: low micromolar concentrations | Alopecia grade 1 (non-DLT) ([17]; human): 1 | Anorexia grade 2 (non-DLT) ([17]; human): 1 | Fatigue grade 2 (non-DLT) ([17]; human): 2 | Fever grade 1 (non-DLT) ([17]; human): 1 | Hand-foot skin reaction grade 2 (non-DLT) ([17]; human): 2 | Headache grade 1 (non-DLT) ([17]; human): 1 | Headache grade 2 (non-DLT) ([17]; human): 1 | Hemoglobin grade 1 (non-DLT) ([17]; human): 4 | Hemoglobin grade 2 (non-DLT) ([17]; human): 1 | Hemoglobin grade 3 (non-DLT) ([17]; human): 1 | Hypertension grade 1 (non-DLT) ([17]; human): 3 | Hypertension grade 3 (non-DLT) ([17]; human): 1 | Hypoalbuminemia grade 1 (non-DLT) ([17]; human): 1 | Hypocalcemia grade 1 (non-DLT) ([17]; human): 3 | Hypophosphatemia grade 2 (non-DLT) ([17]; human): 1 | Increased ALT grade 2 (non-DLT) ([17]; human): 1 | Increased AST grade 2 (non-DLT) ([17]; human): 1 | Increased bilirubin grade 1 (non-DLT) ([17]; human): 1 | Increased bilirubin grade 2 (non-DLT) ([17]; human): 1 | Leukopenia grade 1 (non-DLT) ([17]; human): 4 | Leukopenia grade 2 (non-DLT) ([17]; human): 2 | Leukopenia grade 3 (non-DLT) ([17]; human): 2 | Lymphopenia grade 1 (non-DLT) ([17]; human): 2 | Lymphopenia grade 2 (non-DLT) ([17]; human): 2 | Lymphopenia grade 3 (non-DLT) ([17]; human): 1 | Nausea grade 3 (non-DLT) ([17]; human): 1 | Neutropenia grade 1 (non-DLT) ([17]; human): 3 | Neutropenia grade 2 (non-DLT) ([17]; human): 1 | Neutropenia grade 3 (non-DLT) ([17]; human): 2 | Pain, Other (jaw) grade 1 (non-DLT) ([17]; human): 1 | Thrombocytopenia grade 2 (non-DLT) ([17]; human): 1 | Vomiting grade 1 (non-DLT) ([17]; human): 1 | Vomiting grade 3 (non-DLT) ([17]; human): 1 | patients who developed a DLT after cycle 1 ([17]; human): 5 | Alopecia grade 1 (non-DLT) ([17]; human, 28 day): 2 | Anorexia grade 1 (non-DLT) ([17]; human, 28 day): 4 | Diarrhea grade 2 (non-DLT) ([17]; human, 28 day): 1 | Fatigue grade 1 (non-DLT) ([17]; human, 28 day): 4 | Fatigue grade 2 (non-DLT) ([17]; human, 28 day): 2 | Fever grade 1 (non-DLT) ([17]; human, 28 day): 2 | Hand-foot skin reaction grade 1 (non-DLT) ([17]; human, 28 day): 1 | Hand-foot skin reaction grade 2 (non-DLT) ([17]; human, 28 day): 1 | Headache grade 1 (non-DLT) ([17]; human, 28 day): 3 | Headache grade 2 (non-DLT) ([17]; human, 28 day): 1 | Hypoalbuminemia grade 1 (non-DLT) ([17]; human, 28 day): 1 | Hypoalbuminemia grade 2 (non-DLT) ([17]; human, 28 day): 1 | Hypocalcemia grade 1 (non-DLT) ([17]; human, 28 day): 3 | Hypophosphatemia grade 2 (non-DLT) ([17]; human, 28 day): 2 | Increased ALT grade 2 (non-DLT) ([17]; human, 28 day): 1 | Increased AST grade 2 (non-DLT) ([17]; human, 28 day): 1 | Increased bilirubin grade 2 (non-DLT) ([17]; human, 28 day): 1 | Lymphopenia grade 1 (non-DLT) ([17]; human, 28 day): 1 | Lymphopenia grade 3 (non-DLT) ([17]; human, 28 day): 1 | Mucositis/stomatitis grade 1 (non-DLT) ([17]; human, 28 day): 2 | Nausea grade 2 (non-DLT) ([17]; human, 28 day): 2 | Rash/Desquamation grade 1 (non-DLT) ([17]; human, 28 day): 3 | Rash/Desquamation grade 2 (non-DLT) ([17]; human, 28 day): 1 | Thrombocytopenia grade 1 (non-DLT) ([17]; human, 28 day): 4 | Thrombocytopenia grade 2 (non-DLT) ([17]; human, 28 day): 1 | Hand-foot skin reaction grade 1 (non-DLT) ([17]; human, 28 days): 1 | Hemoglobin grade 1 (non-DLT) ([17]; human, 28 days): 3 | Hemoglobin grade 2 (non-DLT) ([17]; human, 28 days): 1 | Hemoglobin grade 3 (non-DLT) ([17]; human, 28 days): 2 | Hypertension grade 1 (non-DLT) ([17]; human, 28 days): 4 | Hypertension grade 2 (non-DLT) ([17]; human, 28 days): 1 | Hyponatremia grade 1 (non-DLT) ([17]; human, 28 days): 3 | Leukopenia grade 1 (non-DLT) ([17]; human, 28 days): 5 | Leukopenia grade 2 (non-DLT) ([17]; human, 28 days): 2 | Leukopenia grade 3 (non-DLT) ([17]; human, 28 days): 2 | Pain, Other (forearm) grade 1 (non-DLT) ([17]; human, 28 days): 1 | Rash/Desquamation grade 2 (non-DLT) ([17]; human, 28 days): 3 | recommended phase II dose ([17]; human, 28 days): 200 mg/m^2/dose | Lymphopenia grade 1 (non-DLT) ([17]; human, 28 days (course 1)): 2 | Lymphopenia grade 2 (non-DLT) ([17]; human, 28 days (course 1)): 1 | Lymphopenia grade 3 (non-DLT) ([17]; human, 28 days (course 1)): 2 | Neutropenia grade 1 (non-DLT) ([17]; human, 28 days (course 1)): 5 | Neutropenia grade 2 (non-DLT) ([17]; human, 28 days (course 1)): 1 | Neutropenia grade 3 (non-DLT) ([17]; human, 28 days (course 1)): 2 | Thrombocytopenia grade 1 (non-DLT) ([17]; human, 28 days (course 1)): 4 | bony abnormalities on serial plain radiographs [17]: No bony abnormalities | tumor shrinkage ([18]; 1 patient (#24) with synovial sarcoma, after cycle 1, progression after cycle 2): more than 40% | objective responses ([18]; patients with solid tumors): no confirmed objective responses | patients with stable disease for 4 or more cycles ([18]; solid tumor patients): 14

O=P1(N(CCCl)CCCl)NCCCO1 (centres unmarked) [cyclophosphamide]
recommended phase II dose ([2]; once daily, with sorafenib and bevacizumab): 50 mg/m^2
